Test results: patent US20250042875A1, “PESTICIDALLY ACTIVE PYRIDAZINONE COMPOUNDS” (SYNGENTA CROP PROTECTION AG, priority 2021, published 2025)

Key:
Format in all cases: in vivo
Euschistus heros = assay: Activity against Euschistus heros (neotropical brown stink bug), soybean leaves, N2 nymphs; details: 120 h, application rate 200 ppm, 5 days after infestation, read-out: effect in at least one of the two categories (mortality or growth inhibition)
Experimental: Example B3: Activity Against Euschistus heros (Neotropical Brown Stink Bug)
Soybean leaves on agar in 24-well microtiter plates were sprayed with aqueous test solutions prepared from 10′000 ppm DMSO stock solutions. After drying the leaves were infested with N2 nymphs. The samples were assessed for mortality and growth inhibition in comparison to untreated samples 5 days after infestation.

Myzus persicae [1] = assay: Activity against Myzus persicae (green peach aphid), feeding/contact activity; details: 144 h, application rate 200 ppm, 6 days after infestation
Experimental: Example B5: Activity Against Myzus persicae (Green Peach Aphid). Feeding/Contact Activity
Sunflower leaf discs were placed onto agar in a 24-well microtiter plate and sprayed with aqueous test solutions prepared from 10′000 ppm DMSO stock solutions. After drying, the leaf discs were infested with an aphid population of mixed ages. The samples were assessed for mortality 6 days after infestation.

Chilo suppressalis = assay: Activity against Chilo suppressalis (striped rice stemborer), artificial diet, L2 larvae; details: 144 h, application rate 200 ppm, 6 days after infestation, read-out: control in at least one of the three categories (mortality, anti-feedant effect, or growth inhibition)
Summary of the method: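 Artificial diet was treated with aqueous test solutions made from 10′000 ppm DMSO stocks, dried, then infested with 6-8 L2 larvae per well. Mortality, anti-feeding effect and growth inhibition were scored versus untreated samples 6 days after infestation; control means any category exceeds untreated.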

Diabrotica balteata = assay: Activity against Diabrotica balteata (corn root worm), maize sprouts, L2 larvae; details: 96 h, application rate 200 ppm, 4 days after infestation, read-out: control in at least one of the two categories (mortality or growth inhibition)
Experimental: Example B2: Activity Against Diabrotica Balteata (Corn Root Worm)
Maize sprouts placed onto an agar layer in 24-well microtiter plates were treated with aqueous test solutions prepared from 10′000 ppm DMSO stock solutions by spraying. After drying, the plates were infested with L2 larvae (6 to 10 per well). The samples were assessed for mortality and growth inhibition in comparison to untreated samples 4 days after infestation.

Plutella xylostella = assay: Activity against Plutella xylostella (diamond back moth), artificial diet, eggs; details: 192 h, application rate 200 ppm, 8 days after infestation, read-out: control in at least one of the two categories (mortality or growth inhibition)
Summary of the method: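 Artificial diet was treated with aqueous dilutions of 10′000 ppm DMSO stocks, dried, then infested with Plutella eggs. Mortality and growth inhibition versus untreated samples were scored 8 days after infestation.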

[2] = tested on: Frankliniella occidentalis; assay: Activity against Frankliniella occidentalis (western flower thrips), feeding/contact activity; details: 168 h, application rate 200 ppm, 7 days after infestation
Experimental: Example B4: Activity Against Frankliniella occidentalis (Western Flower Thrips). Feeding/Contact Activity
Sunflower leaf discs were placed on agar in 24-well microtiter plates and sprayed with aqueous test solutions prepared from […] stock solutions. After drying the leaf discs were infested with a Frankliniella population of mixed ages. The samples were assessed for mortality 7 days after infestation.

Spodoptera littoralis = assay: Activity against Spodoptera littoralis (Egyptian cotton leaf worm), cotton leaf discs, L1 larvae; details: foliar, 72 h, application rate 200 ppm, 3 days after infestation, read-out: control in at least one of the three categories (mortality, anti-feedant effect, or growth inhibition)
Summary of the method: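 Cotton leaf discs on agar sprayed with aqueous test solutions made from 10′000 ppm DMSO stocks, then infested with five L1 larvae once dry. Mortality, anti-feeding and growth inhibition scored versus untreated samples 3 days after infestation; control counted when any category exceeds untreated.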

Myzus persicae [3] = assay: Activity against Myzus persicae (green peach aphid), systemic activity; details: 144 h, test rate 24 ppm, 6 days after placing seedlings into test solutions
Experimental: Example B9: Activity Against Myzus persicae (Green Peach Aphid). Systemic Activity
Roots of pea seedlings infested with an aphid population of mixed ages were placed directly into aqueous test solutions prepared from 10′000 DMSO stock solutions. The samples were assessed for mortality 6 days after placing seedlings into test solutions.

Myzus persicae [4] = assay: Activity against Myzus persicae (green peach aphid), intrinsic activity; details: 120 h, test rate 12 ppm, 5 days after infestation
Summary of the method: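 Compounds diluted from 10′000 ppm DMSO stocks were mixed with sucrose solution under a stretched Parafilm membrane. Aphid-infested pea seedlings were set on the membrane and the plate was inverted so the aphids fed through it. Mortality was scored 5 days after infestation.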

Tetranychus urticae = assay: Activity against Tetranychus urticae (two-spotted spider mite), feeding/contact activity; details: 192 h
Experimental: Example B10: Activity Against Tetranychus urticae (Two-Spotted Spider Mite). Feeding/Contact Activity
Bean leaf discs on agar in 24-well microtiter plates were sprayed with aqueous test solutions prepared from 10′000 ppm DMSO stock solutions. After drying the leaf discs were infested with a mite population of mixed ages. The samples were assessed for mortality on mixed population (mobile stages) 8 days after infestation.

C[C@H](NC(=O)c1cc(C(F)(F)F)cc(C(F)(F)F)c1)c1ncnn1C1=NN(C)C(=O)CC1 [P2, N-[(1S)-1-[2-(1-methyl-6-oxo-4,5-dihydropyridazin-3-yl)-1,2,4-triazol-3-yl]ethyl]-3,5-bis(trifluoromethyl)benzamide]
≥ 80%: percent effect (mortality or growth inhibition) at 200 ppm (Euschistus heros) | mortality at 200 ppm (Myzus persicae [1]) | percent control (mortality, anti-feedant effect or growth inhibition) at 200 ppm (Chilo suppressalis) | percent control (mortality or growth inhibition) at 200 ppm (Diabrotica balteata) | percent control (mortality or growth inhibition) at 200 ppm (Plutella xylostella) | mortality at 200 ppm [2] | percent control (mortality, anti-feedant effect or growth inhibition) at 200 ppm (Spodoptera littoralis)

C[C@@H](c1ncnn1-c1ccc(=O)n(C)n1)N(C)C(=O)c1cc(C(F)(F)F)cc(C(F)(F)F)c1 [P5, N-methyl-N-[(1S)-1-[2-(1-methyl-6-oxo-pyridazin-3-yl)-1,2,4-triazol-3-yl]ethyl]-3,5-bis(trifluoromethyl)benzamide]
≥ 80%: percent effect (mortality or growth inhibition) at 200 ppm (Euschistus heros) | mortality at 200 ppm (Myzus persicae [1]) | percent control (mortality, anti-feedant effect or growth inhibition) at 200 ppm (Chilo suppressalis) | percent control (mortality or growth inhibition) at 200 ppm (Diabrotica balteata) | percent control (mortality or growth inhibition) at 200 ppm (Plutella xylostella) | mortality at 24 ppm (Myzus persicae [3]) | mortality at 12 ppm (Myzus persicae [4]) | percent control (mortality, anti-feedant effect or growth inhibition) at 200 ppm (Spodoptera littoralis)

CC(c1nccnc1-c1ccc(=O)n(C)n1)N(C)C(=O)c1cc(C(F)(F)F)cc(C(F)(F)F)c1 (stereo not drawn) [P6, N-methyl-N-[1-[3-(1-methyl-6-oxo-pyridazin-3-yl)pyrazin-2-yl]ethyl]-3,5-bis(trifluoromethyl)benzamide]
≥ 80%: mortality at 200 ppm (Myzus persicae [1]) | percent control (mortality, anti-feedant effect or growth inhibition) at 200 ppm (Chilo suppressalis) | percent control (mortality or growth inhibition) at 200 ppm (Diabrotica balteata) | percent control (mortality or growth inhibition) at 200 ppm (Plutella xylostella) | mortality at 24 ppm (Myzus persicae [3]) | mortality at 12 ppm (Myzus persicae [4]) | percent control (mortality, anti-feedant effect or growth inhibition) at 200 ppm (Spodoptera littoralis)

C[C@H](NC(=O)c1cc(Cl)cc(S(C)(=O)=O)c1)c1ncnn1-c1ccc(=O)n(C)n1 [P9, 3-chloro-N-[(1S)-1-[2-(1-methyl-6-oxo-pyridazin-3-yl)-1,2,4-triazol-3-yl]ethyl]-5-methylsulfonyl-benzamide]
≥ 80%: percent effect (mortality or growth inhibition) at 200 ppm (Euschistus heros) | mortality at 200 ppm (Myzus persicae [1]) | mortality at 200 ppm [2] | mortality at 12 ppm (Myzus persicae [4])

C[C@@H](c1ncnn1-c1ccc(=O)n(C)n1)N(C)C(=O)c1cc(Cl)cc(S(=O)(=O)C(F)(F)F)c1 [P18, 3-chloro-N-methyl-N-[(1S)-1-[2-(1-methyl-6-oxo-pyridazin-3-yl)-1,2,4-triazol-3-yl]ethyl]-5-(trifluoromethylsulfonyl) benzamide]
≥ 80%: percent effect (mortality or growth inhibition) at 200 ppm (Euschistus heros) | mortality at 200 ppm (Myzus persicae [1]) | percent control (mortality, anti-feedant effect or growth inhibition) at 200 ppm (Chilo suppressalis) | percent control (mortality or growth inhibition) at 200 ppm (Diabrotica balteata) | percent control (mortality or growth inhibition) at 200 ppm (Plutella xylostella) | mortality at 24 ppm (Myzus persicae [3]) | mortality at 12 ppm (Myzus persicae [4]) | percent control (mortality, anti-feedant effect or growth inhibition) at 200 ppm (Spodoptera littoralis)

C[C@H](NC(=O)c1cc(Cl)cc(C(F)(F)F)c1)c1ncnn1C1=NN(C)C(=O)CC1 [P19, 3-chloro-N-[(1S)-1-[2-(1-methyl-6-oxo-4,5-dihydropyridazin-3-yl)-1,2,4-triazol-3-yl]ethyl]-5-(trifluoromethyl)benzamide]
≥ 80%: percent effect (mortality or growth inhibition) at 200 ppm (Euschistus heros) | percent control (mortality, anti-feedant effect or growth inhibition) at 200 ppm (Chilo suppressalis) | percent control (mortality or growth inhibition) at 200 ppm (Diabrotica balteata) | percent control (mortality or growth inhibition) at 200 ppm (Plutella xylostella) | mortality at 200 ppm (Tetranychus urticae) | mortality at 200 ppm [2] | mortality at 12 ppm (Myzus persicae [4]) | percent control (mortality, anti-feedant effect or growth inhibition) at 200 ppm (Spodoptera littoralis)

C[C@H](NC(=O)c1cc(Br)cc(Br)c1)c1ncnn1-c1ccc(=O)n(C)n1 [P29, 3,5-dibromo-N-[(1S)-1-[2-(1-methyl-6-oxo-pyridazin-3-yl)-1,2,4-triazol-3-yl]ethyl]benzamide]
≥ 80%: percent effect (mortality or growth inhibition) at 200 ppm (Euschistus heros) | mortality at 200 ppm (Myzus persicae [1]) | percent control (mortality, anti-feedant effect or growth inhibition) at 200 ppm (Chilo suppressalis) | percent control (mortality or growth inhibition) at 200 ppm (Diabrotica balteata) | percent control (mortality or growth inhibition) at 200 ppm (Plutella xylostella) | mortality at 12 ppm (Myzus persicae [4]) | percent control (mortality, anti-feedant effect or growth inhibition) at 200 ppm (Spodoptera littoralis)

C[C@H](NC(=O)c1cc(Br)cc(I)c1)c1ncnn1-c1ccc(=O)n(C)n1 [P30, 3-bromo-5-iodo-N-[(1S)-1-[2-(1-methyl-6-oxo-pyridazin-3-yl)-1,2,4-triazol-3-yl]ethyl]benzamide]
≥ 80%: percent effect (mortality or growth inhibition) at 200 ppm (Euschistus heros) | mortality at 200 ppm (Myzus persicae [1]) | percent control (mortality, anti-feedant effect or growth inhibition) at 200 ppm (Chilo suppressalis) | percent control (mortality or growth inhibition) at 200 ppm (Diabrotica balteata) | percent control (mortality or growth inhibition) at 200 ppm (Plutella xylostella) | mortality at 12 ppm (Myzus persicae [4]) | percent control (mortality, anti-feedant effect or growth inhibition) at 200 ppm (Spodoptera littoralis)

CC(NC(=O)c1cc(C(F)(F)F)nc(C2(C#N)CC2)c1)c1nccnc1-c1ccc(=O)n(C)n1 (stereo not drawn) [P32, 2-(1-cyanocyclopropyl)-N-[1-[3-(1-methyl-6-oxo-pyridazin-3-yl)pyrazin-2-yl]ethyl]-6-(trifluoromethyl)pyridine-4-carboxamide]
≥ 80%: percent effect (mortality or growth inhibition) at 200 ppm (Euschistus heros) | mortality at 200 ppm (Myzus persicae [1]) | percent control (mortality, anti-feedant effect or growth inhibition) at 200 ppm (Chilo suppressalis) | percent control (mortality or growth inhibition) at 200 ppm (Diabrotica balteata) | percent control (mortality or growth inhibition) at 200 ppm (Plutella xylostella) | mortality at 12 ppm (Myzus persicae [4]) | percent control (mortality, anti-feedant effect or growth inhibition) at 200 ppm (Spodoptera littoralis)

C[C@H](NC(=O)c1cc(C(F)(F)F)nc(C2(C#N)CC2)c1)c1ncnn1-c1ccc(=O)n(C)n1 [P33, 2-(1-cyanocyclopropyl)-N-[(1S)-1-[2-(1-methyl-6-oxo-pyridazin-3-yl)-1,2,4-triazol-3-yl]ethyl]-6-(trifluoromethyl)pyridine-4-carboxamide]
≥ 80%: percent effect (mortality or growth inhibition) at 200 ppm (Euschistus heros) | mortality at 200 ppm (Myzus persicae [1]) | percent control (mortality, anti-feedant effect or growth inhibition) at 200 ppm (Chilo suppressalis) | percent control (mortality or growth inhibition) at 200 ppm (Diabrotica balteata) | percent control (mortality or growth inhibition) at 200 ppm (Plutella xylostella) | mortality at 12 ppm (Myzus persicae [4]) | percent control (mortality, anti-feedant effect or growth inhibition) at 200 ppm (Spodoptera littoralis)

C[C@H](NC(=O)c1cc(Br)cc(OC(F)(F)F)c1)c1ncnn1-c1ccc(=O)n(C)n1 [P40, 3-bromo-N-[(1S)-1-[2-(1-methyl-6-oxo-pyridazin-3-yl)-1,2,4-triazol-3-yl]ethyl]-5-(trifluoromethoxy)benzamide]
≥ 80%: percent effect (mortality or growth inhibition) at 200 ppm (Euschistus heros) | mortality at 200 ppm (Myzus persicae [1]) | percent control (mortality, anti-feedant effect or growth inhibition) at 200 ppm (Chilo suppressalis) | percent control (mortality or growth inhibition) at 200 ppm (Diabrotica balteata) | percent control (mortality or growth inhibition) at 200 ppm (Plutella xylostella) | mortality at 12 ppm (Myzus persicae [4]) | percent control (mortality, anti-feedant effect or growth inhibition) at 200 ppm (Spodoptera littoralis)

C[C@H](NC(=O)c1cc(C(F)(F)F)cc(C(C)(C)C#N)c1)c1ncnn1-c1ccc(=O)n(C)n1 [P43, 3-(1-cyano-1-methyl-ethyl)-N-[(1S)-1-[2-(1-methyl-6-oxo-pyridazin-3-yl)-1,2,4-triazol-3-yl]ethyl]-5-(trifluoromethyl)benzamide]
≥ 80%: percent effect (mortality or growth inhibition) at 200 ppm (Euschistus heros) | mortality at 200 ppm (Myzus persicae [1]) | percent control (mortality, anti-feedant effect or growth inhibition) at 200 ppm (Chilo suppressalis) | percent control (mortality or growth inhibition) at 200 ppm (Diabrotica balteata) | percent control (mortality or growth inhibition) at 200 ppm (Plutella xylostella) | mortality at 12 ppm (Myzus persicae [4]) | percent control (mortality, anti-feedant effect or growth inhibition) at 200 ppm (Spodoptera littoralis)
